According to patent publication US10011615B2, “Heterobicyclo-substituted [1,2,4]triazolo[1,5-c]quinazolin-5-amine compounds with A2A anatagonist properties” (Merck Sharp & Dohme Corp., priority 2012, dated 2018):
Structures can show the parent of a compound that is named as a salt.

Target: T1, human A2a receptor (Homo sapiens, UniProt P29274)
T1 construct: purchased Perkin-Elmer RBHA2AM400UA; host or cells: HEK293 cell membranes
Test: A2a receptor competition binding assay using Scintillation Proximity technology
Details: membranes from HEK293 cells expressing human A2a receptor; 0.5 nM tritiated radioligand; SPA beads; 1 h room temperature
Summary of the method: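 Membranes of HEK293 cells expressing human A2a, pretreated with adenosine deaminase, incubated 1 h at room temperature with 0.5 nM tritiated pyrazolotriazolopyrimidine antagonist (final) and compound (3000 to 0.15 nM) on WGA SPA beads in Ca/Mg-free PBS with 10 mM MgCl2. Ki from EC50 via Cheng-Prusoff.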

T1 sequence (P29274 whole entry): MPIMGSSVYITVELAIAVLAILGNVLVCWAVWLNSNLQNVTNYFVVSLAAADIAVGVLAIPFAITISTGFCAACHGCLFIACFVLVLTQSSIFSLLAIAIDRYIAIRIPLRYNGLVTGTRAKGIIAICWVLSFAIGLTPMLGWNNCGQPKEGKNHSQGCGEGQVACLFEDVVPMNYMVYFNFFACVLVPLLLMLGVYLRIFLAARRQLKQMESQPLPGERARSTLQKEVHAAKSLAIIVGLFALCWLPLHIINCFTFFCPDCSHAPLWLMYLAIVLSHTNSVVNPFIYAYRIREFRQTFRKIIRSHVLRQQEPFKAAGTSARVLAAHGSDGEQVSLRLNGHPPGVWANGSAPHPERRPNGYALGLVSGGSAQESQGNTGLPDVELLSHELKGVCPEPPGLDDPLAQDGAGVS

| Compound | EC50 |
| --- | --- |
| CCOc1cccc2c1nc(N)n1nc(CN3Cc4cccnc4C3)nc21 [Ex-203, 2-((5H-pyrrolo[3,4-b]pyridin-6(7H)-yl)methyl)-7-ethoxy-[1,2,4]triazolo[1,5-c]quinazolin-5-amine] | 88.3 nM |
| CCOc1cccc2c1nc(N)n1nc(CN3CCc4cccnc4C3)nc21 [Ex-204, 2-((5,6-dihydro-1,7-naphthyridin-7(8H)-yl)methyl)-7-ethoxy-[1,2,4]triazolo[1,5-c]quinazolin-5-amine] | 40.7 nM |
| Nc1nc2c(OCF)cccc2c2nc(CN3CCc4cccnc4C3)nn12 [Ex-205, 2-((5,6-dihydro-1,7-naphthyridin-7(8H)-yl)methyl)-7-(fluoromethoxy)-[1,2,4]triazolo[1,5-c]quinazolin-5-amine] | 10.9 nM |
| COc1cccc2c1nc(N)n1nc(C[C@@H](C)N3CCc4nc(C)oc4C3)nc21 [Ex-211, (R)-7-methoxy-2-(2-(2-methyl-6,7-dihydrooxazolo[5,4-c]pyridin-5(4H)-yl)propyl)-[1,2,4]triazolo[1,5-c]quinazolin-5-amine] | 3 nM |
| COc1cccc2c1nc(N)n1nc(C[C@H](C)N3CCc4nc(C)oc4C3)nc21 [Ex-212, (S)-7-methoxy-2-(2-(2-methyl-6,7-dihydrooxazolo[5,4-c]pyridin-5(4H)-yl)propyl)-[1,2,4]triazolo[1,5-c]quinazolin-5-amine] | 6.1 nM |
| COc1cccc2c1nc(N)n1nc(C[C@@H](C)N3CCn4nc(C)cc4C3)nc21 [Ex-221, (R)-7-methoxy-2-(2-(2-methyl-6,7-dihydropyrazolo[1,5-a]pyrazin-5(4H)-yl)propyl)-[1,2,4]triazolo[1,5-c]quinazolin-5-amine] | 3.9 nM |
| COc1cccc2c1nc(N)n1nc(CCCN3Cc4cccnc4C3)nc21 [Ex-227, 2-(3-(5H-pyrrolo[3,4-b]pyridin-6(7H)-yl)propyl)-7-methoxy-[1,2,4]triazolo[1,5-c]quinazolin-5-amine] | 7.7 nM |
| COc1cccc2c1nc(N)n1nc(CCCN3Cc4ccc(F)cc4C3)nc21 [Ex-229] | 14.8 nM |
| COc1cccc2c1nc(N)n1nc(CCCN3Cc4ccc(C(F)(F)F)cc4C3)nc21 [Ex-230, 7-methoxy-2-(3-(5-(trifluoromethyl)isoindolin-2-yl)propyl)-[1,2,4]triazolo[1,5-c]quinazolin-5-amine] | 5.7 nM |
| COc1cccc2c1nc(N)n1nc(CCN3Cc4nc(C5CC5)sc4C3)nc21 [Ex-241, 2-(2-(2-cyclopropyl-4H-pyrrolo[3,4-d]thiazol-5(6H)-yl)ethyl)-7-methoxy-[1,2,4]triazolo[1,5-c]quinazolin-5-amine] | 7.3 nM |
| COc1cccc2c1nc(N)n1nc(CCN3Cc4nc(C)oc4C3)nc21 [Ex-244, 7-methoxy-2-(2-(2-methyl-4H-pyrrolo[3,4-d]oxazol-5(6H)-yl)ethyl)-[1,2,4]triazolo[1,5-c]quinazolin-5-amine] | 0.3 nM |
| COc1cccc2c1nc(N)n1nc(CCN3Cc4cnn(C)c4C3)nc21 [Ex-246, 7-methoxy-2-(2-(1-methylpyrrolo[3,4-c]pyrazol-5(1H,4H,6H)-yl)ethyl)-[1,2,4]triazolo[1,5-c]quinazolin-5-amine] | 5.4 nM |

Second part, the compound after the results:

| EC50 | Compound |
| --- | --- |
| 29 nM | COc1cccc2c1nc(N)n1nc(C[C@@H](C)N3CCc4oc(C)nc4C3)nc21 [Ex-214, (R)-7-methoxy-2-(2-(2-methyl-6,7-dihydrooxazolo[4,5-c]pyridin-5(4H)-yl)propyl)-[1,2,4]triazolo[1,5-c]quinazolin-5-amine] |
| 5.7 nM | COc1cccc2c1nc(N)n1nc(C[C@H](C)N3CCc4oc(C)nc4C3)nc21 [Ex-215, (S)-7-methoxy-2-(2-(2-methyl-6,7-dihydrooxazolo[4,5-c]pyridin-5(4H)-yl)propyl)-[1,2,4]triazolo[1,5-c]quinazolin-5-amine] |
| 3 nM | COc1cccc2c1nc(N)n1nc(C[C@@H](C)N3CCc4nc(C)sc4C3)nc21 [Ex-216, (R)-7-methoxy-2-(2-(2-methyl-6,7-dihydrothiazolo[5,4-c]pyridin-5(4H)-yl)propyl)-(1,2,4]triazolo[1,5-c]quinazolin-5-amine] |
| 7.8 nM | COc1cccc2c1nc(N)n1nc(CCCN3Cc4cccc(F)c4C3)nc21 [Ex-228, 2-(3-(4-fluoroisoindolin-2-yl)propyl)-7-methoxy-[1,2,4]triazolo[1,5-c]quinazolin-5-amine] |
| 2.8 nM | COc1cccc2c1nc(N)n1nc(CCN3Cc4oc(C)nc4C(C)(C)C3)nc21 [Ex-235, 7-Methoxy-2-(2-(2,7,7-trimethyl-6,7-dihydro-oxazolo[5,4-c]pyridin-5(4H)-yl)ethyl)-[1,2,4]triazolo[1,5-c]quinazolin-5-amine, TFA] |
| 1.4 nM | COc1cccc2c1nc(N)n1nc(CCN3CCc4nc(C)oc4C3C)nc21 (stereo not drawn) [Ex-236, 2-(2-(2,4-dimethyl-6,7-dihydrooxazolo[5,4-c]pyridin-5(4H)-yl)ethyl)-7-methoxy-[1,2,4]triazolo[1,5-c]quinazolin-5-amine] |
| 3.5 nM | COc1cccc2c1nc(N)n1nc(CCN3Cc4oc(C)nc4CC3C)nc21 (stereo not drawn) [Ex-237, 2-(2-(2,6-dimethyl-6,7-dihydrooxazolo[5,4-c]pyridin-5(4H)-yl)ethyl)-7-methoxy-[1,2,4]triazolo[1,5-c]quinazolin-5-amine] |
| 0.1 nM | COc1cccc2c1nc(N)n1nc(CCN3Cc4nc(C(C)C)sc4C3)nc21 [Ex-242, 2-(2-(2-isopropyl-4H-pyrrolo[3,4-d]thiazol-5(6H)-yl)ethyl)-7-methoxy-[1,2,4]triazolo[1,5-c]quinazolin-5-amine] |
| 1.3 nM | CCc1nc2c(s1)CN(CCc1nc3c4cccc(OC)c4nc(N)n3n1)C2 [Ex-243, 2-(2-(2-ethyl-4H-pyrrolo[3,4-d]thiazol-5(6H)-yl)ethyl)-7-methoxy-[1,2,4]triazolo[1,5-c]quinazolin-5-amine] |
| 1 nM | COc1cccc2c1nc(N)n1nc(CCN3Cc4nc(C5CC5)oc4C3)nc21 [Ex-245] |
| 0.2 nM | COc1cccc2c1nc(N)n1nc(C[C@@H](C)N3Cc4nc(C)oc4C3)nc21 [Ex-247, (R)-7-methoxy-2-(2-(2-methyl-4H-pyrrolo[3,4-d]oxazol-5(6H)-yl)propyl)-[1,2,4]triazolo[1,5-c]quinazolin-5-amine] |
| 1 nM | CC[C@H](Cc1nc2c3cccc(OC)c3nc(N)n2n1)N1Cc2nc(C)oc2C1 [Ex-248, (R)-7-methoxy-2-(2-(2-methyl-4H-pyrrolo[3,4-d]oxazol-5(6H)-yl)butyl)-[1,2,4]triazolo[1,5-c]quinazolin-5-amine] |
